In the NIST ThermoML archive (doi:10.1016/j.jct.2006.08.002):
Where “and” joins values, the source holds several entries; their conditions need not be identical. Equal entries are not always repeated. Numbers after ± are expanded uncertainties.

Assay: xn = mol fraction of the nth substance listed
Conditions: Fluid (supercritical or subcritical phases), Constant-volume piezometry

CCO [ethanol] + O
mass density (524.15 K, 7270 kPa, x1 = 0.8): 383.33 ± 2.6 kg/m3
mass density (525.15 K, 7460 kPa, x1 = 0.8): 383.31 ± 3 kg/m3
mass density (526.15 K, 7550 kPa, x1 = 0.8): 367.95 ± 10 kg/m3
mass density (528.15 K, 7710 kPa, x1 = 0.8): 312.86 ± 35 kg/m3
mass density (528.15 K, 7870 kPa, x1 = 0.8): 367.91 ± 21 kg/m3
mass density (528.15 K, 8040 kPa, x1 = 0.8): 383.24 ± 7.2 kg/m3
mass density (528.15 K, 8410 kPa, x1 = 0.8): 406.33 ± 6.3 kg/m3
mass density (531.15 K, 8420 kPa, x1 = 0.8): 367.86 ± 6 kg/m3
mass density (533.15 K, 4750 kPa, x1 = 0.8): 53.24 ± 2.6 kg/m3
mass density (533.15 K, 7070 kPa, x1 = 0.5): 84.52 ± 4.7 kg/m3
mass density (533.15 K, 7100 kPa, x1 = 0.8): 115.14 ± 5.5 kg/m3
mass density (533.15 K, 8140 kPa, x1 = 0.8): 188.77 ± 43 kg/m3
mass density (533.15 K, 8270 kPa, x1 = 0.8): 244.11 ± 44 kg/m3 and 260.96 ± 44 kg/m3
mass density (533.15 K, 8350 kPa, x1 = 0.8): 284.34 ± 28 kg/m3
mass density (533.15 K, 8420 kPa, x1 = 0.8): 312.77 ± 24 kg/m3
mass density (533.15 K, 8440 kPa, x1 = 0.8): 307.44 ± 25 kg/m3
mass density (533.15 K, 8750 kPa, x1 = 0.8): 367.82 ± 14 kg/m3
mass density (533.15 K, 8990 kPa, x1 = 0.8): 383.14 ± 5.5 kg/m3
mass density (533.15 K, 9460 kPa, x1 = 0.8): 406.22 ± 4 kg/m3
mass density (533.15 K, 10480 kPa, x1 = 0.8): 440.21 ± 3.3 kg/m3
mass density (533.15 K, 10860 kPa, x1 = 0.8): 446.58 ± 2.4 kg/m3
mass density (533.15 K, 17410 kPa, x1 = 0.8): 516.16 ± 1 kg/m3
mass density (538.15 K, 9170 kPa, x1 = 0.8): 312.69 ± 2 kg/m3
mass density (538.15 K, 27310 kPa, x1 = 0.8): 553.51 ± 0.79 kg/m3
mass density (543.15 K, 4920 kPa, x1 = 0.8): 53.21 ± 2.3 kg/m3
mass density (543.15 K, 7570 kPa, x1 = 0.5): 84.48 ± 8.6 kg/m3
mass density (543.15 K, 7610 kPa, x1 = 0.8): 115.08 ± 3.1 kg/m3
mass density (543.15 K, 9020 kPa, x1 = 0.8): 188.68 ± 7.1 kg/m3
mass density (543.15 K, 9530 kPa, x1 = 0.8): 260.83 ± 15 kg/m3
mass density (543.15 K, 9680 kPa, x1 = 0.8): 284.19 ± 11 kg/m3
mass density (543.15 K, 9920 kPa, x1 = 0.8): 312.61 ± 8.6 kg/m3
mass density (543.15 K, 10630 kPa, x1 = 0.8): 367.62 ± 6.9 kg/m3
mass density (543.15 K, 10940 kPa, x1 = 0.8): 382.93 ± 4.5 kg/m3
mass density (543.15 K, 11670 kPa, x1 = 0.8): 406 ± 3.2 kg/m3
mass density (548.15 K, 7850 kPa, x1 = 0.8): 115.06 ± 4.7 kg/m3
mass density (548.15 K, 9420 kPa, x1 = 0.8): 188.63 ± 5.8 kg/m3
mass density (548.15 K, 9680 kPa, x1 = 0.5): 294.01 ± 18 kg/m3
mass density (548.15 K, 9720 kPa, x1 = 0.5): 327.56 ± 14 kg/m3
mass density (548.15 K, 9980 kPa, x1 = 0.8): 243.92 ± 10 kg/m3
mass density (548.15 K, 10390 kPa, x1 = 0.5): 421.66 ± 6.2 kg/m3
mass density (548.15 K, 10630 kPa, x1 = 0.8): 307.19 ± 6.6 kg/m3
mass density (548.15 K, 10680 kPa, x1 = 0.8): 312.53 ± 6.6 kg/m3
mass density (548.15 K, 11790 kPa, x1 = 0.5): 464.07 ± 1.5 kg/m3
mass density (548.15 K, 11950 kPa, x1 = 0.8): 382.83 ± 3.3 kg/m3
mass density (548.15 K, 14420 kPa, x1 = 0.8): 439.83 ± 1.8 kg/m3
mass density (548.15 K, 14800 kPa, x1 = 0.8): 446.2 ± 1.8 kg/m3
mass density (548.15 K, 17240 kPa, x1 = 0.5): 522.28 ± 0.91 kg/m3
mass density (548.15 K, 26570 kPa, x1 = 0.5): 568.89 ± 0.72 kg/m3
mass density (548.15 K, 30490 kPa, x1 = 0.5): 581.74 ± 0.73 kg/m3
mass density (553.15 K, 5080 kPa, x1 = 0.8): 53.19 ± 4.1 kg/m3
mass density (553.15 K, 6130 kPa, x1 = 0.5): 55.97 ± 1.2 kg/m3
mass density (553.15 K, 7190 kPa, x1 = 0.5): 69.28 ± 1.7 kg/m3
mass density (553.15 K, 7970 kPa, x1 = 0.5): 84.44 ± 2.4 kg/m3
mass density (553.15 K, 9210 kPa, x1 = 0.5): 117.47 ± 4.8 kg/m3
mass density (553.15 K, 10090 kPa, x1 = 0.5): 171.33 ± 15 kg/m3
mass density (553.15 K, 10330 kPa, x1 = 0.5): 234.67 ± 26 kg/m3
mass density (553.15 K, 10520 kPa, x1 = 0.5): 327.48 ± 15 kg/m3
mass density (553.15 K, 10600 kPa, x1 = 0.5): 293.93 ± 11 kg/m3
mass density (553.15 K, 10890 kPa, x1 = 0.5): 385.77 ± 8.5 kg/m3
mass density (553.15 K, 11430 kPa, x1 = 0.8): 312.45 ± 5 kg/m3
mass density (553.15 K, 11790 kPa, x1 = 0.5): 424.77 ± 3 kg/m3
mass density (553.15 K, 11850 kPa, x1 = 0.5): 419.86 ± 3.1 kg/m3
mass density (553.15 K, 12540 kPa, x1 = 0.8): 367.42 ± 5.2 kg/m3
mass density (553.15 K, 13460 kPa, x1 = 0.5): 463.93 ± 1.4 kg/m3
mass density (553.15 K, 19450 kPa, x1 = 0.5): 522.11 ± 0.97 kg/m3
mass density (553.15 K, 25160 kPa, x1 = 0.8): 515.53 ± 1.2 kg/m3
